In publication PMC5856391, “Critical role of C-terminal residues of the Alzheimer's associated β-amyloid protein in mediating antiviral activity and modulating viral and bacterial interactions with neutrophils” (PLoS ONE, 2018):
“Also recorded” adds a separate entry of the source.

How the values were obtained:
[1] = system: IAV; assay: Confocal microscopy of Alexa Fluor 594 labeled IAV on MDCK cells; type: cell-based, influenza A virus; conditions: Alexa Fluor 594 labeled IAV pre-incubated with peptide 30 minutes at 37°C, then MDCK cells 45 min; 3 experiments; Fig 3
[2] = system: Philippines 82/H3N2 (Phil82) influenza A virus; type: cell-based
[3] = system: human neutrophils; assay: Neutrophil uptake of rhodamine labeled E.coli; type: cell-based; conditions: for Neutrophil uptake of E.coli: rhodamine labeled E.coli pre-incubated with peptide, flow cytometry, 5 experiments, separate donors, Fig 7
[4] = system: IAV; assay: Viral aggregation by electron microscopy; parameters: species or system influenza A virus; conditions: 2 or 8μg/ml of peptide; LPS control 10 EU/ml; representative of 3 experiments; Fig 2C
[5] = system: Escherichia coli (E.coli); assay: Aggregation of rhodamine labeled E.coli (fluorescent microscopy); conditions: rhodamine E. coli preincubated with 50ug/ml peptide for 1 hour at 37°C, fluorescent microscope; three experiments; Fig 6
[6] = system: human neutrophils; assay: IAV uptake by neutrophils (flow cytometry); type: cell-based; conditions: FITC-IAV (Phil82) treated with peptide 30 min at 37°C, then neutrophils 45 minutes at 37°C, trypan blue quench, 5 experiments, separate donors
[7] = system: human neutrophils; type: cell-based; conditions: compared to IAV alone, 5 experiments
[8] = system: IAV; assay: Viral aggregation by light absorbance at 350 nm; parameters: species or system influenza A virus; conditions: for Aggregation of IAV particles (light transmission at 350nm): dilute suspension of IAV, Fig 2A and 2B (8 and 16μg/ml)
[9] = parameters: method as in PMID 24449257; conditions: simulation kinetics and energetics, compared with βA 35–40 and βA37-42; cited from earlier work

Row | Sequence | Viral aggregates visible by confocal microscopy [1] | Inhibition of IAV infectivity (neutralization) [2] | Neutrophil uptake of E.coli [3] | Viral aggregation by electron microscopy [4] | Aggregation of fluorescent E.coli [5] | Neutrophil uptake of IAV ([6]; Fig 4) | Neutrophil uptake of E.coli, 32μg/ml ([3]; 32μg/ml peptide, Fig 7A) | Neutrophil H2O2 production in response to IAV ([7]; IAV pre-incubated with peptide, Fig 5B) | Aggregation of IAV particles (light transmission at 350nm) [8] | Propensity to assemble into unorganized oligomers [9] | Neutrophil H2O2 formation in response to IAV, 16μg/ml ([7]; IAV pre-incubated with 16μg/ml peptide, Fig 5A) | Aggregation of IAV (light transmission at 350nm), 16μg/ml ([8]; 16μg/ml of βA peptides, Fig 2B) | Aggregation of IAV particles (light transmission at 350nm) ([8]; listed as 22–42) | Neutrophil uptake of IAV ([6]; Fig 4, listed as 22–42)
1 | EDVGSNKGAIIGLMVGGVV [βA22-40, βA fragment of residues 22-40, obtained from Genscript] | not | no or minimal antiviral activity | slight but significantly increased uptake at the highest concentration tested | did not | did not | lacked activity |  |  |  |  |  |  |  | 
2 | MVGGVVIA [βA35-42, 8 amino acid βA fragment of residues 35-42, obtained from Genscript] |  | significantly inhibited infectivity |  |  |  | increased uptake at the highest concentration tested | some increase in E.coli uptake | did not increase H2O2 production | caused aggregation of IAV particles | increased propensity |  |  |  | 
3 | GLMVGGVV [βA33-40, βA fragment of residues 33-40, obtained from Genscript] |  | no or minimal antiviral activity | No significant effects |  |  | lacked activity |  |  |  |  |  |  |  | 
4 | EDVGSNKGAIIGLMVGGVVIA [βA22-42, βA fragment of residues 22-42, obtained from Genscript] | Aggregates were visible; also recorded: Aggregates were apparent | significantly inhibited infectivity | marked increase in uptake | marked viral aggregation | caused aggregation | greater increases than βA1-42 |  |  | highest activity in this assay |  | increased H2O2 formation as compared to IAV alone | statistically significant aggregation | caused aggregation of IAV particles | had the ability to increase viral uptake
